Data taken from PubChem BioAssay (NCI).
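Results reflect a 48-hour exposure of cells in 96-well plates to compound at five concentrations. GI50 = concentration required for 50% inhibition of growth. TGI denotes the concentration required for complete inhibition of growth.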

Key:
Test in all cases: DTP human tumour cell line panel, 48 h
RPMI-8226 leukemia = test system: RPMI-8226 leukemia
TK-10 renal = test system: TK-10 renal
UACC-257 melanoma = test system: UACC-257 melanoma
SK-OV-3 ovarian = test system: SK-OV-3 ovarian
HCT-116 colon = test system: HCT-116 colon
SK-MEL-2 melanoma = test system: SK-MEL-2 melanoma
NCI/ADR-RES ovarian = test system: NCI/ADR-RES ovarian
NCI-H522 lung = test system: NCI-H522 lung
PC-3 prostate = test system: PC-3 prostate
U251 CNS = test system: U251 CNS
MOLT-4 leukemia = test system: MOLT-4 leukemia
SK-MEL-5 melanoma = test system: SK-MEL-5 melanoma
SR leukemia = test system: SR leukemia
NCI-H23 lung = test system: NCI-H23 lung
A498 renal = test system: A498 renal
CAKI-1 renal = test system: CAKI-1 renal
RXF 393 renal = test system: RXF 393 renal
OVCAR-3 ovarian = test system: OVCAR-3 ovarian
MCF7 breast = test system: MCF7 breast
HL-60(TB) leukemia = test system: HL-60(TB) leukemia
K-562 leukemia = test system: K-562 leukemia
MDA-MB-435 = test system: MDA-MB-435
COLO 205 colon = test system: COLO 205 colon
UO-31 renal = test system: UO-31 renal
IGROV1 ovarian = test system: IGROV1 ovarian
SNB-19 CNS = test system: SNB-19 CNS
HOP-92 NSCLC = test system: HOP-92 NSCLC
LOX IMVI melanoma = test system: LOX IMVI melanoma
HT29 colon = test system: HT29 colon
HCT-15 colon = test system: HCT-15 colon
NCI-H226 lung = test system: NCI-H226 lung
CCRF-CEM leukemia = test system: CCRF-CEM leukemia
HOP-62 NSCLC = test system: HOP-62 NSCLC
NCI-H460 lung = test system: NCI-H460 lung
HS 578T breast = test system: HS 578T breast
SN12C renal = test system: SN12C renal
DU-145 prostate = test system: DU-145 prostate
SW-620 colon = test system: SW-620 colon
BT-549 breast = test system: BT-549 breast
786-0 renal = test system: 786-0 renal
UACC-62 melanoma = test system: UACC-62 melanoma
SF-268 CNS = test system: SF-268 CNS
M14 melanoma = test system: M14 melanoma
MDA-MB-231 breast = test system: MDA-MB-231 breast
SK-MEL-28 melanoma = test system: SK-MEL-28 melanoma
HCC-2998 colon = test system: HCC-2998 colon
SF-295 CNS = test system: SF-295 CNS
OVCAR-8 ovarian = test system: OVCAR-8 ovarian
EKVX NSCLC = test system: EKVX NSCLC
OVCAR-5 ovarian = test system: OVCAR-5 ovarian
MALME-3M melanoma = test system: MALME-3M melanoma
A549 NSCLC = test system: A549 NSCLC
T-47D breast = test system: T-47D breast
SNB-75 CNS = test system: SNB-75 CNS
SF-539 CNS = test system: SF-539 CNS
KM12 colon = test system: KM12 colon
ACHN renal = test system: ACHN renal
OVCAR-4 ovarian = test system: OVCAR-4 ovarian

## O=C(CC1(O)C(=O)N(Cc2ccccc2)c2ccc(Br)cc21)c1ccc(C(=O)NCC2CCC3(CC2)OOC2(CCCCC2)OO3)cc1 (stereo unspecified)
RPMI-8226 leukemia
  GI50: 0.83 µM
  TGI: 3.69 µM
TK-10 renal
  GI50: 0.35 µM
  TGI: 0.989 µM
UACC-257 melanoma
  GI50: 16.1 µM
  TGI: > 100 µM
SK-OV-3 ovarian
  GI50: 7.26 µM
  TGI: > 24.2 µM
HCT-116 colon
  GI50: 2.08 µM
  TGI: 8.18 µM
SK-MEL-2 melanoma
  GI50: 3.69 µM
  TGI: 13.2 µM
NCI/ADR-RES ovarian
  GI50: 0.583 µM
  TGI: 1.81 µM
NCI-H522 lung
  GI50: 0.214 µM
  TGI: 0.556 µM
PC-3 prostate
  GI50: 1.73 µM
  TGI: 12.5 µM
U251 CNS
  GI50: 0.301 µM
  TGI: 0.92 µM
MOLT-4 leukemia
  GI50: 1.98 µM
  TGI: 6.54 µM
SK-MEL-5 melanoma
  GI50: 3.01 µM
  TGI: 10 µM
SR leukemia
  GI50: 0.216 µM
  TGI: 0.981 µM
NCI-H23 lung
  GI50: 0.237 µM
  TGI: 0.595 µM
A498 renal
  GI50: 2.22 µM
  TGI: 6.86 µM
CAKI-1 renal
  GI50: 0.557 µM
  TGI: 1.06 µM
RXF 393 renal
  GI50: 0.554 µM
  TGI: 1.29 µM
OVCAR-3 ovarian
  GI50: 0.435 µM
  TGI: 1.52 µM
MCF7 breast
  GI50: 2.65 µM
  TGI: > 87.9 µM
HL-60(TB) leukemia
  GI50: 0.33 µM
  TGI: 1.12 µM
K-562 leukemia
  GI50: 1.69 µM
  TGI: 8.28 µM
MDA-MB-435
  GI50: 0.647 µM
  TGI: 1.93 µM
COLO 205 colon
  GI50: 2.04 µM
  TGI: 5.95 µM
UO-31 renal
  GI50: 0.187 µM
  TGI: 0.363 µM
IGROV1 ovarian
  GI50: 0.278 µM
  TGI: 0.799 µM
SNB-19 CNS
  GI50: 8.13 µM
  TGI: > 100 µM
HOP-92 NSCLC
  GI50: 0.213 µM
  TGI: 0.468 µM
LOX IMVI melanoma
  GI50: 0.152 µM
  TGI: 0.304 µM
HT29 colon
  GI50: 0.615 µM
  TGI: 2.06 µM
HCT-15 colon
  GI50: 1.15 µM
  TGI: 4.67 µM
NCI-H226 lung
  GI50: 5.06 µM
  TGI: 19.3 µM
CCRF-CEM leukemia
  GI50: 0.35 µM
  TGI: 1.11 µM
HOP-62 NSCLC
  GI50: 0.237 µM
  TGI: 0.619 µM
NCI-H460 lung
  GI50: 0.488 µM
  TGI: 1.66 µM
HS 578T breast
  GI50: 2.93 µM
  TGI: 15.9 µM
SN12C renal
  GI50: 1.16 µM
  TGI: 3.18 µM
DU-145 prostate
  GI50: 0.191 µM
  TGI: 0.354 µM
SW-620 colon
  GI50: 2.89 µM
  TGI: 10.1 µM
BT-549 breast
  GI50: 3.26 µM
  TGI: 20.1 µM
786-0 renal
  GI50: 0.173 µM
  TGI: 0.334 µM
UACC-62 melanoma
  GI50: 11.2 µM
  TGI: > 59 µM
SF-268 CNS
  GI50: 2.03 µM
  TGI: 6.74 µM
M14 melanoma
  GI50: 4.31 µM
  TGI: 30.6 µM
MDA-MB-231 breast
  GI50: 0.549 µM
  TGI: 2.03 µM
SK-MEL-28 melanoma
  GI50: 17 µM
  TGI: > 100 µM
HCC-2998 colon
  GI50: 2.19 µM
  TGI: 5.1 µM
SF-295 CNS
  GI50: 0.794 µM
  TGI: 2.46 µM
OVCAR-8 ovarian
  GI50: 0.285 µM
  TGI: 1.01 µM
EKVX NSCLC
  GI50: 0.437 µM
  TGI: 1.59 µM
OVCAR-5 ovarian
  GI50: 1.58 µM
  TGI: 15.6 µM
MALME-3M melanoma
  GI50: 0.594 µM
  TGI: 2.05 µM
A549 NSCLC
  GI50: 0.224 µM
  TGI: 0.496 µM
T-47D breast
  GI50: 1.3 µM
  TGI: 6.28 µM
SNB-75 CNS
  GI50: 1.53 µM
  TGI: 6.02 µM
SF-539 CNS
  GI50: 0.322 µM
  TGI: 0.988 µM
KM12 colon
  GI50: 0.435 µM
  TGI: 1.7 µM
ACHN renal
  GI50: 0.239 µM
  TGI: 0.598 µM
OVCAR-4 ovarian
  GI50: 3.81 µM
  TGI: 16.3 µM
